Laboratory results as given in ChEMBL document CHEMBL1649134, “Occurrence of efflux mechanism and cephalosporinase variant in a population of Enterobacter aerogenes and Klebsiella pneumoniae isolates producing extended-spectrum beta-lactamases” (2009).
Values after ≈ are worked out from the molar mass of the structure shown.

How the values were obtained:
Format in all cases: functional
Klebsiella aerogenes [1] = experiment: Antimicrobial activity against multidrug resistant Enterobacter aerogenes isolate 17 by broth dilution method in presence of 26.3 mg/L efflux pump inhibitor phenylalanine-arginine-beta-naphthylamide
Klebsiella aerogenes [2] = experiment: Antimicrobial activity against multidrug resistant Enterobacter aerogenes isolate 18 by broth dilution method in presence of 26.3 mg/L efflux pump inhibitor phenylalanine-arginine-beta-naphthylamide
Klebsiella aerogenes [3] = experiment: Antimicrobial activity against multidrug resistant Enterobacter aerogenes isolate 19 by broth dilution method in presence of 26.3 mg/L efflux pump inhibitor phenylalanine-arginine-beta-naphthylamide
Klebsiella aerogenes [4] = experiment: Antimicrobial activity against multidrug resistant Enterobacter aerogenes isolate 22 by broth dilution method in presence of 26.3 mg/L efflux pump inhibitor phenylalanine-arginine-beta-naphthylamide
Klebsiella aerogenes [5] = experiment: Antimicrobial activity against multidrug resistant Enterobacter aerogenes isolate 27 by broth dilution method in presence of 26.3 mg/L efflux pump inhibitor phenylalanine-arginine-beta-naphthylamide
Klebsiella pneumoniae [6] = experiment: Antimicrobial activity against multidrug resistant Klebsiella pneumoniae ATCC 11296 by broth dilution method in presence of 26.3 mg/L efflux pump inhibitor phenylalanine-arginine-beta-naphthylamide
Klebsiella pneumoniae [7] = experiment: Antimicrobial activity against multidrug resistant Klebsiella pneumoniae isolate 1 by broth dilution method in presence of 26.3 mg/L efflux pump inhibitor phenylalanine-arginine-beta-naphthylamide
Klebsiella pneumoniae [8] = experiment: Antimicrobial activity against multidrug resistant Klebsiella pneumoniae isolate 3 by broth dilution method in presence of 26.3 mg/L efflux pump inhibitor phenylalanine-arginine-beta-naphthylamide
Klebsiella pneumoniae [9] = experiment: Antimicrobial activity against multidrug resistant Klebsiella pneumoniae isolate 6 by broth dilution method in presence of 26.3 mg/L efflux pump inhibitor phenylalanine-arginine-beta-naphthylamide
Klebsiella pneumoniae [10] = experiment: Antimicrobial activity against multidrug resistant Klebsiella pneumoniae isolate 11 by broth dilution method in presence of 26.3 mg/L efflux pump inhibitor phenylalanine-arginine-beta-naphthylamide
Klebsiella pneumoniae [11] = experiment: Antimicrobial activity against multidrug resistant Klebsiella pneumoniae isolate 13 by broth dilution method in presence of 26.3 mg/L efflux pump inhibitor phenylalanine-arginine-beta-naphthylamide
Klebsiella pneumoniae [12] = experiment: Antimicrobial activity against multidrug resistant Klebsiella pneumoniae isolate 15 by broth dilution method in presence of 26.3 mg/L efflux pump inhibitor phenylalanine-arginine-beta-naphthylamide
Klebsiella pneumoniae [13] = experiment: Antimicrobial activity against multidrug resistant Klebsiella pneumoniae isolate 16 by broth dilution method in presence of 26.3 mg/L efflux pump inhibitor phenylalanine-arginine-beta-naphthylamide
Klebsiella aerogenes [14] = experiment: Antimicrobial activity against multidrug resistant Enterobacter aerogenes ATCC 15038 by broth dilution method in presence of 26.3 mg/L efflux pump inhibitor phenylalanine-arginine-beta-naphthylamide
Klebsiella aerogenes [15] = experiment: Antimicrobial activity against multidrug resistant Enterobacter aerogenes isolate 1 by broth dilution method
Klebsiella aerogenes [16] = experiment: Antimicrobial activity against multidrug resistant Enterobacter aerogenes isolate 2 by broth dilution method
Klebsiella aerogenes [17] = experiment: Antimicrobial activity against multidrug resistant Enterobacter aerogenes isolate 3 by broth dilution method
Klebsiella aerogenes [18] = experiment: Antimicrobial activity against multidrug resistant Enterobacter aerogenes isolate 8 by broth dilution method
Klebsiella aerogenes [19] = experiment: Antimicrobial activity against multidrug resistant Enterobacter aerogenes isolate 11 by broth dilution method
Klebsiella aerogenes [20] = experiment: Antimicrobial activity against multidrug resistant Enterobacter aerogenes isolate 14 by broth dilution method
Klebsiella aerogenes [21] = experiment: Antimicrobial activity against multidrug resistant Enterobacter aerogenes isolate 15 by broth dilution method
Klebsiella aerogenes [22] = experiment: Antimicrobial activity against multidrug resistant Enterobacter aerogenes isolate 18 by broth dilution method
Klebsiella aerogenes [23] = experiment: Antimicrobial activity against multidrug resistant Enterobacter aerogenes isolate 20 by broth dilution method
Klebsiella aerogenes [24] = experiment: Antimicrobial activity against multidrug resistant Enterobacter aerogenes isolate 24 by broth dilution method
Klebsiella aerogenes [25] = experiment: Antimicrobial activity against multidrug resistant Enterobacter aerogenes isolate 27 by broth dilution method
Klebsiella pneumoniae [26] = experiment: Antimicrobial activity against multidrug resistant Klebsiella pneumoniae ATCC 11296 by broth dilution method
Klebsiella pneumoniae [27] = experiment: Antimicrobial activity against multidrug resistant Klebsiella pneumoniae isolate 1 by broth dilution method
Klebsiella pneumoniae [28] = experiment: Antimicrobial activity against multidrug resistant Klebsiella pneumoniae isolate 3 by broth dilution method
Klebsiella pneumoniae [29] = experiment: Antimicrobial activity against multidrug resistant Klebsiella pneumoniae isolate 6 by broth dilution method
Klebsiella pneumoniae [30] = experiment: Antimicrobial activity against multidrug resistant Klebsiella pneumoniae isolate 7 by broth dilution method
Klebsiella pneumoniae [31] = experiment: Antimicrobial activity against multidrug resistant Klebsiella pneumoniae isolate 8 by broth dilution method
Klebsiella pneumoniae [32] = experiment: Antimicrobial activity against multidrug resistant Klebsiella pneumoniae isolate 9 by broth dilution method
Klebsiella pneumoniae [33] = experiment: Antimicrobial activity against multidrug resistant Klebsiella pneumoniae isolate 14 by broth dilution method
Klebsiella pneumoniae [34] = experiment: Antimicrobial activity against multidrug resistant Klebsiella pneumoniae isolate 15 by broth dilution method
Klebsiella pneumoniae [35] = experiment: Antimicrobial activity against multidrug resistant Klebsiella pneumoniae isolate 16 by broth dilution method
Klebsiella aerogenes [36] = experiment: Antimicrobial activity against multidrug resistant Enterobacter aerogenes isolate 1 by broth dilution method in presence of 26.3 mg/L efflux pump inhibitor phenylalanine-arginine-beta-naphthylamide
Klebsiella aerogenes [37] = experiment: Antimicrobial activity against multidrug resistant Enterobacter aerogenes isolate 2 by broth dilution method in presence of 26.3 mg/L efflux pump inhibitor phenylalanine-arginine-beta-naphthylamide
Klebsiella aerogenes [38] = experiment: Antimicrobial activity against multidrug resistant Enterobacter aerogenes isolate 5 by broth dilution method in presence of 26.3 mg/L efflux pump inhibitor phenylalanine-arginine-beta-naphthylamide
Klebsiella aerogenes [39] = experiment: Antimicrobial activity against multidrug resistant Enterobacter aerogenes isolate 9 by broth dilution method in presence of 26.3 mg/L efflux pump inhibitor phenylalanine-arginine-beta-naphthylamide
Klebsiella aerogenes [40] = experiment: Antimicrobial activity against multidrug resistant Enterobacter aerogenes isolate 11 by broth dilution method in presence of 26.3 mg/L efflux pump inhibitor phenylalanine-arginine-beta-naphthylamide
Klebsiella aerogenes [41] = experiment: Antimicrobial activity against multidrug resistant Enterobacter aerogenes isolate 14 by broth dilution method in presence of 26.3 mg/L efflux pump inhibitor phenylalanine-arginine-beta-naphthylamide

CCn1cc(C(=O)O)c(=O)c2cc(F)c(N3CCNCC3)cc21 [NORFLOXACIN]
MIC (Klebsiella aerogenes [1]): 128 µg/mL
MIC (Klebsiella aerogenes [2]): 128 µg/mL
MIC (Klebsiella aerogenes [3]): 128 µg/mL
MIC (Klebsiella aerogenes [4]): 128 µg/mL
MIC (Klebsiella aerogenes [5]): 128 µg/mL
MIC (Klebsiella pneumoniae [6]): 0.125 µg/mL
MIC (Klebsiella pneumoniae [7]): 2 µg/mL
MIC (Klebsiella pneumoniae [8]): 128 µg/mL
MIC (Klebsiella pneumoniae [9]): 0.25 µg/mL
MIC (Klebsiella pneumoniae [10]): 64 µg/mL
MIC (Klebsiella pneumoniae [11]): 32 µg/mL
MIC (Klebsiella pneumoniae [12]): 256 µg/mL
MIC (Klebsiella pneumoniae [13]): 0.5 µg/mL
MIC (Klebsiella aerogenes [14]): 0.125 µg/mL
MIC (Klebsiella aerogenes [15]): 256 µg/mL (≈ 802 µM)
MIC (Klebsiella aerogenes [16]): 256 µg/mL (≈ 802 µM)
MIC (Klebsiella aerogenes [17]): 256 µg/mL (≈ 802 µM)
MIC (Klebsiella aerogenes [18]): 128 µg/mL (≈ 401 µM)
MIC (Klebsiella aerogenes [19]): 512 µg/mL (≈ 1600 µM)
MIC (Klebsiella aerogenes [20]): 512 µg/mL (≈ 1600 µM)
MIC (Klebsiella aerogenes [21]): 512 µg/mL (≈ 1600 µM)
MIC (Klebsiella aerogenes [22]): 128 µg/mL (≈ 401 µM)
MIC (Klebsiella aerogenes [23]): 512 µg/mL (≈ 1600 µM)
MIC (Klebsiella aerogenes [24]): 512 µg/mL (≈ 1600 µM)
MIC (Klebsiella aerogenes [25]): 256 µg/mL (≈ 802 µM)
MIC (Klebsiella pneumoniae [26]): 0.5 µg/mL (≈ 1.57 µM)
MIC (Klebsiella pneumoniae [27]): 2 µg/mL (≈ 6.26 µM)
MIC (Klebsiella pneumoniae [28]): 128 µg/mL (≈ 401 µM)
MIC (Klebsiella pneumoniae [29]): 1 µg/mL (≈ 3.13 µM)
MIC (Klebsiella pneumoniae [30]): 0.25 µg/mL (≈ 0.783 µM)
MIC (Klebsiella pneumoniae [31]): 2 µg/mL (≈ 6.26 µM)
MIC (Klebsiella pneumoniae [32]): 1 µg/mL (≈ 3.13 µM)
MIC (Klebsiella pneumoniae [33]): 8 µg/mL (≈ 25.1 µM)
MIC (Klebsiella pneumoniae [34]): 256 µg/mL (≈ 802 µM)
MIC (Klebsiella pneumoniae [35]): 1 µg/mL (≈ 3.13 µM)
MIC (Klebsiella aerogenes [36]): 256 µg/mL
MIC (Klebsiella aerogenes [37]): 256 µg/mL
MIC (Klebsiella aerogenes [38]): 512 µg/mL
MIC (Klebsiella aerogenes [39]): 128 µg/mL
MIC (Klebsiella aerogenes [40]): 256 µg/mL
MIC (Klebsiella aerogenes [41]): 512 µg/mL

O=C(N[C@H](CO)[C@H](O)c1ccc([N+](=O)[O-])cc1)C(Cl)Cl [CHLORAMPHENICOL]
MIC (Klebsiella aerogenes [1]): 64 µg/mL
MIC (Klebsiella aerogenes [2]): 4 µg/mL
MIC (Klebsiella aerogenes [3]): 64 µg/mL
MIC (Klebsiella aerogenes [4]): 128 µg/mL
MIC (Klebsiella aerogenes [5]): 128 µg/mL
MIC (Klebsiella pneumoniae [6]): 2 µg/mL
MIC (Klebsiella pneumoniae [7]): 8 µg/mL
MIC (Klebsiella pneumoniae [8]): 4 µg/mL
MIC (Klebsiella pneumoniae [9]): 2 µg/mL
MIC (Klebsiella pneumoniae [10]): 4 µg/mL
MIC (Klebsiella pneumoniae [11]): 4 µg/mL
MIC (Klebsiella pneumoniae [12]): 2 µg/mL
MIC (Klebsiella pneumoniae [13]): 4 µg/mL
MIC (Klebsiella aerogenes [14]): 1 µg/mL
MIC (Klebsiella aerogenes [15]): 1020 µg/mL (≈ 3170 µM)
MIC (Klebsiella aerogenes [16]): 512 µg/mL (≈ 1580 µM)
MIC (Klebsiella aerogenes [17]): 1020 µg/mL (≈ 3170 µM)
MIC (Klebsiella aerogenes [18]): 256 µg/mL (≈ 792 µM)
MIC (Klebsiella aerogenes [19]): 512 µg/mL (≈ 1580 µM)
MIC (Klebsiella aerogenes [20]): 512 µg/mL (≈ 1580 µM)
MIC (Klebsiella aerogenes [21]): 512 µg/mL (≈ 1580 µM)
MIC (Klebsiella aerogenes [22]): 32 µg/mL (≈ 99 µM)
MIC (Klebsiella aerogenes [23]): 1020 µg/mL (≈ 3170 µM)
MIC (Klebsiella aerogenes [24]): 512 µg/mL (≈ 1580 µM)
MIC (Klebsiella aerogenes [25]): 1020 µg/mL (≈ 3170 µM)
MIC (Klebsiella pneumoniae [26]): 4 µg/mL (≈ 12.4 µM)
MIC (Klebsiella pneumoniae [27]): 8 µg/mL (≈ 24.8 µM)
MIC (Klebsiella pneumoniae [28]): 4 µg/mL (≈ 12.4 µM)
MIC (Klebsiella pneumoniae [29]): 32 µg/mL (≈ 99 µM)
MIC (Klebsiella pneumoniae [30]): 32 µg/mL (≈ 99 µM)
MIC (Klebsiella pneumoniae [31]): 32 µg/mL (≈ 99 µM)
MIC (Klebsiella pneumoniae [32]): 64 µg/mL (≈ 198 µM)
MIC (Klebsiella pneumoniae [34]): 8 µg/mL (≈ 24.8 µM)
MIC (Klebsiella aerogenes [36]): 128 µg/mL
MIC (Klebsiella aerogenes [37]): 64 µg/mL
MIC (Klebsiella aerogenes [38]): 128 µg/mL
MIC (Klebsiella aerogenes [39]): 64 µg/mL
MIC (Klebsiella aerogenes [40]): 64 µg/mL
MIC (Klebsiella aerogenes [41]): 64 µg/mL
